# System: 855422-203-R-J1-PDC complex spheroids, viability
# Test: Anticancer human tumor 855422-203-R-J1-PDC patient-derived bladder carcinoma cell line growth inhibition [CLK]
# Settings: for IC50: curve of first compound; for viability, T/C: stronger effect = lower value
# Outline: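 Patient-derived tumor cells grown as complex spheroids with HUVEC endothelial cells and mesenchymal stem cells, treated with drug combinations. Concentrations descend in half-log steps from near clinical Cmax, or from 10 microM if Cmax unknown.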
# [1] = second compound 0.0316 µM, first compound 0.00949 µM
# [2] = second compound 0.0316 µM, first compound 0.03 µM
# [3] = second compound 0.0316 µM, first compound 0.0949 µM
# [4] = second compound 0.0316 µM, first compound 0.3 µM
# [5] = second compound 0.1 µM, first compound 0.00949 µM
# [6] = second compound 0.1 µM, first compound 0.03 µM
# [7] = second compound 0.1 µM, first compound 0.0949 µM
# [8] = second compound 0.1 µM, first compound 0.3 µM
# [9] = second compound 0.316 µM, first compound 0.00949 µM
# [10] = second compound 0.316 µM, first compound 0.03 µM
# [11] = second compound 0.316 µM, first compound 0.0949 µM
# [12] = second compound 0.316 µM, first compound 0.3 µM
# [13] = second compound 1 µM, first compound 0.00949 µM
# [14] = second compound 1 µM, first compound 0.03 µM
# [15] = second compound 1 µM, first compound 0.0949 µM
# [16] = second compound 1 µM, first compound 0.3 µM
# [17] = second compound 3.16 µM, first compound 0.00949 µM
# [18] = second compound 3.16 µM, first compound 0.03 µM
# [19] = second compound 3.16 µM, first compound 0.0949 µM
# [20] = second compound 3.16 µM, first compound 0.3 µM
# [21] = second compound 10 µM, first compound 0.00949 µM
# [22] = second compound 10 µM, first compound 0.03 µM
# [23] = second compound 10 µM, first compound 0.0949 µM
# [24] = second compound 10 µM, first compound 0.3 µM
# 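Also: spheroids exposed to drugs for seven days before readout.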
# 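For viability, T/C in this document: 100% = DMSO vehicle control wells.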
structure (smiles),measurement,setting,value
C=CC(=O)Nc1cc(Nc2nccc(-c3cn(C)c4ccccc34)n2)c(OC)cc1N(C)CCN(C)C + CN1CCN(c2cc(C(=O)Nc3cc4cc(-c5cnn(C)c5)ccc4cn3)ccn2)CC1,IC50,second compound 0.0316 µM,> 0.3 µM
same,IC50,second compound 0.1 µM,> 0.3 µM
same,IC50,second compound 0.316 µM,< 0.000949 µM
same,IC50,second compound 1 µM,< 0.000949 µM
same,IC50,second compound 3.16 µM,< 0.000949 µM
same,IC50,second compound 10 µM,< 0.000949 µM
same,"viability, T/C","second compound 0.0316 µM, first compound 0.000949 µM",104%
same,"viability, T/C","second compound 0.0316 µM, first compound 0.003 µM",88.3%
same,"viability, T/C",[1],112%
same,"viability, T/C",[2],102%
same,"viability, T/C",[3],97.6%
same,"viability, T/C",[4],91.4%
same,"viability, T/C","second compound 0.1 µM, first compound 0.000949 µM",79.1%
same,"viability, T/C","second compound 0.1 µM, first compound 0.003 µM",80.4%
same,"viability, T/C",[5],85.8%
same,"viability, T/C",[6],91.7%
same,"viability, T/C",[7],74.8%
same,"viability, T/C",[8],64.5%
same,"viability, T/C","second compound 0.316 µM, first compound 0.000949 µM",7.04%
same,"viability, T/C","second compound 0.316 µM, first compound 0.003 µM",9.27%
same,"viability, T/C",[9],8.35%
same,"viability, T/C",[10],11.4%
same,"viability, T/C",[11],8.34%
same,"viability, T/C",[12],7.28%
same,"viability, T/C","second compound 1 µM, first compound 0.000949 µM",0.18%
same,"viability, T/C","second compound 1 µM, first compound 0.003 µM",0.31%
same,"viability, T/C",[13],0.54%
same,"viability, T/C",[14],0.25%
same,"viability, T/C",[15],1.14%
same,"viability, T/C",[16],0.46%
same,"viability, T/C","second compound 3.16 µM, first compound 0.000949 µM",0.7%
same,"viability, T/C","second compound 3.16 µM, first compound 0.003 µM",0.52%
same,"viability, T/C",[17],0.64%
same,"viability, T/C",[18],0.46%
same,"viability, T/C",[19],0.68%
same,"viability, T/C",[20],0.93%
same,"viability, T/C","second compound 10 µM, first compound 0.000949 µM",0.4%
same,"viability, T/C","second compound 10 µM, first compound 0.003 µM",1.47%
same,"viability, T/C",[21],0.52%
same,"viability, T/C",[22],0.85%
same,"viability, T/C",[23],0.58%
same,"viability, T/C",[24],0.28%
NC(=O)C(=Cn1cnc(-c2cc(C(F)(F)F)cc(C(F)(F)F)c2)n1)c1cncnc1 + CN1CCN(c2cc(C(=O)Nc3cc4cc(-c5cnn(C)c5)ccc4cn3)ccn2)CC1,IC50,second compound 0.0316 µM,0.0706 µM
same,IC50,second compound 0.1 µM,0.0523 µM
same,IC50,second compound 0.316 µM,< 0.00949 µM
same,IC50,second compound 1 µM,< 0.00949 µM
same,IC50,second compound 3.16 µM,< 0.00949 µM
same,IC50,second compound 10 µM,< 0.00949 µM
same,"viability, T/C",[1],137%
same,"viability, T/C",[2],122%
same,"viability, T/C",[3],25.1%
same,"viability, T/C",[4],5.66%
same,"viability, T/C","second compound 0.0316 µM, first compound 0.949 µM",6%
same,"viability, T/C","second compound 0.0316 µM, first compound 3 µM",1.88%
same,"viability, T/C",[5],82.6%
same,"viability, T/C",[6],90.1%
same,"viability, T/C",[7],11.2%
same,"viability, T/C",[8],2.07%
same,"viability, T/C","second compound 0.1 µM, first compound 0.949 µM",3.91%
same,"viability, T/C","second compound 0.1 µM, first compound 3 µM",0.25%
same,"viability, T/C",[9],2.6%
same,"viability, T/C",[10],1.37%
same,"viability, T/C",[11],1.48%
same,"viability, T/C",[12],0.21%
same,"viability, T/C","second compound 0.316 µM, first compound 0.949 µM",0.13%
same,"viability, T/C","second compound 0.316 µM, first compound 3 µM",0.05%
same,"viability, T/C",[13],0.15%
same,"viability, T/C",[14],0.76%
same,"viability, T/C",[15],0.42%
same,"viability, T/C",[16],0.21%
same,"viability, T/C","second compound 1 µM, first compound 0.949 µM",0.71%
same,"viability, T/C","second compound 1 µM, first compound 3 µM",0.05%
same,"viability, T/C",[17],0.27%
same,"viability, T/C",[18],0.21%
same,"viability, T/C",[19],0.42%
same,"viability, T/C",[20],0.13%
same,"viability, T/C","second compound 3.16 µM, first compound 0.949 µM",0.22%
same,"viability, T/C","second compound 3.16 µM, first compound 3 µM",0.09%
same,"viability, T/C",[21],0.14%
same,"viability, T/C",[22],0.09%
same,"viability, T/C",[23],0.34%
same,"viability, T/C",[24],0.23%
same,"viability, T/C","second compound 10 µM, first compound 0.949 µM",0.6%
same,"viability, T/C","second compound 10 µM, first compound 3 µM",0.2%
Nc1ccccc1NC(=O)c1ccc(CNC(=O)OCc2cccnc2)cc1 + CN1CCN(c2cc(C(=O)Nc3cc4cc(-c5cnn(C)c5)ccc4cn3)ccn2)CC1,IC50,second compound 0.0316 µM,0.846 µM
same,IC50,second compound 0.1 µM,0.486 µM
same,IC50,second compound 0.316 µM,< 0.0316 µM
same,IC50,second compound 1 µM,< 0.0316 µM
same,IC50,second compound 3.16 µM,< 0.0316 µM
same,IC50,second compound 10 µM,< 0.0316 µM
same,"viability, T/C","second compound 0.0316 µM, first compound 0.0316 µM",87%
same,"viability, T/C","second compound 0.0316 µM, first compound 0.1 µM",72.8%
same,"viability, T/C","second compound 0.0316 µM, first compound 0.316 µM",68.8%
same,"viability, T/C","second compound 0.0316 µM, first compound 1 µM",49%
same,"viability, T/C","second compound 0.0316 µM, first compound 3.16 µM",19.2%
same,"viability, T/C","second compound 0.0316 µM, first compound 10 µM",0.56%
same,"viability, T/C","second compound 0.1 µM, first compound 0.0316 µM",65.2%
same,"viability, T/C","second compound 0.1 µM, first compound 0.1 µM",75.4%
same,"viability, T/C","second compound 0.1 µM, first compound 0.316 µM",58.4%
same,"viability, T/C","second compound 0.1 µM, first compound 1 µM",33%
same,"viability, T/C","second compound 0.1 µM, first compound 3.16 µM",10.7%
same,"viability, T/C","second compound 0.1 µM, first compound 10 µM",0.05%
same,"viability, T/C","second compound 0.316 µM, first compound 0.0316 µM",5.43%
same,"viability, T/C","second compound 0.316 µM, first compound 0.1 µM",5.82%
same,"viability, T/C","second compound 0.316 µM, first compound 0.316 µM",9.34%
same,"viability, T/C","second compound 0.316 µM, first compound 1 µM",3.91%
same,"viability, T/C","second compound 0.316 µM, first compound 3.16 µM",0.28%
same,"viability, T/C","second compound 0.316 µM, first compound 10 µM",0.06%
same,"viability, T/C","second compound 1 µM, first compound 0.0316 µM",0.15%
same,"viability, T/C","second compound 1 µM, first compound 0.1 µM",0.19%
same,"viability, T/C","second compound 1 µM, first compound 0.316 µM",0.13%
same,"viability, T/C","second compound 1 µM, first compound 1 µM",0.09%
same,"viability, T/C","second compound 1 µM, first compound 3.16 µM",0.12%
same,"viability, T/C","second compound 1 µM, first compound 10 µM",0.09%
same,"viability, T/C","second compound 3.16 µM, first compound 0.0316 µM",0.53%
same,"viability, T/C","second compound 3.16 µM, first compound 0.1 µM",1.31%
same,"viability, T/C","second compound 3.16 µM, first compound 0.316 µM",0.28%
same,"viability, T/C","second compound 3.16 µM, first compound 1 µM",0.49%
same,"viability, T/C","second compound 3.16 µM, first compound 3.16 µM",0.96%
same,"viability, T/C","second compound 3.16 µM, first compound 10 µM",0.28%
same,"viability, T/C","second compound 10 µM, first compound 0.0316 µM",0.2%
same,"viability, T/C","second compound 10 µM, first compound 0.1 µM",0.34%
same,"viability, T/C","second compound 10 µM, first compound 0.316 µM",0.42%
same,"viability, T/C","second compound 10 µM, first compound 1 µM",0.36%
same,"viability, T/C","second compound 10 µM, first compound 3.16 µM",0.31%
same,"viability, T/C","second compound 10 µM, first compound 10 µM",0.24%

# Source: PubChem BioAssay AID2060609 (Molecular Pharmacology Branch, DTP, NCI, 2025)
